Patent US11618749B2, “Compounds and compositions for treating conditions associated with STING activity” (IFM Due, Inc., priority 2018, dated 2023)

What follows are compounds tested against T1, hSTING (Homo sapiens, UniProt Q86WV6, G230A/H232R/R293Q/R71H) (assay: STING reporter assay (luciferase reporter) in THP1-Dual KO-IFNAR2 cells activated with 2′3′cGAMP). Details: 15 μM 2′3′cGAMP, 24 h, luciferase reporter activity.
T1 construct: host or cells: THP1-Dual KO-IFNAR2 cells
Format: cell-based
Method: STING pathway activation by the compounds described herein is measured using THP1-Dual™ cells (KO-IFNAR2).
THP1-Dual™ KO-IFNAR2 Cells (obtained from invivogen) are maintained in RPMI, 10% FCS, 5 ml P/S, 2 mM L-glut, 10 mM Hepes, and 1 mM sodium pyruvate. Compounds are spotted in empty 384 well tissue culture plates (Greiner 781182) by Echo for a final concentration of […]. Cells are plated into the TC plates at 40 μL per well, 2×10E6 cells/mL. For activation with STING ligand, 2′3′cGAMP (MW 718.38, obtained from Invivogen), is prepared in Optimem media.
The following solutions are prepared for each 1×384 plate: • Solution A: 2 mL Optimem with one of the following stimuli: • 60 uL of 10 mM 2′3′cGAMP→150 μM stock • Solution B: 2 mL Optimem with 60 μL Lipofectamine 2000→Incubate 5 min at RT
2 mL of solution A and 2 ml Solution B is mixed and incubated for 20 min at room temperature (RT). 20 uL of transfection solution (A+B) is added on top of the plated cells, with a final 2′3′cGAMP concentration of 15 μM. The plates are then centrifuged immediately at 340 g for 1 minute, after which they are incubated at 37° C., 5% CO2, >98% humidity for 24 h. Luciferase reporter activity is then measured. EC50 values were calculated by using standard methods known in the art.
Luciferase Reporter Assay:
10 μL of supernatant from the assay is transferred to white 384-plate with flat bottom and squared wells. one pouch of QUANTI-Luc™ Plus is dissolved in 25 mL of water. 100 μL of QLC Stabilizer per 25 mL of QUANTI-Luc™ Plus solution was added. 50 μL of QUANTI-Luc™ Plus/QLC solution per well is then added. Luminescence is measured on a Platereader (e.g., Spectramax I3X (Molecular Devices GF3637001)).
Luciferase reporter activity is then measured. EC50 values are calculated by using standard methods known in the art.

T1 sequence (Q86WV6 whole entry R71H/G230A/H232R/R293Q): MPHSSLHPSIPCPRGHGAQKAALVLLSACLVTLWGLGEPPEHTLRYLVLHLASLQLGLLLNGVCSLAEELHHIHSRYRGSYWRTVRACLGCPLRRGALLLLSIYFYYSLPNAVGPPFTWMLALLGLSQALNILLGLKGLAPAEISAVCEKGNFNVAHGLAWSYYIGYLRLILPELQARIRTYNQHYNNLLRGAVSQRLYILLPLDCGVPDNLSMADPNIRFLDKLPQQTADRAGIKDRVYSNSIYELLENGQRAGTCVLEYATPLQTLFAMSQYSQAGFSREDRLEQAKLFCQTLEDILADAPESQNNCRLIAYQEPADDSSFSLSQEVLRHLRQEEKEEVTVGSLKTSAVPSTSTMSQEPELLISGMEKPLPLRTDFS

Compound | EC50
C#Cc1ccc2[nH]cc(NC(=O)Nc3ccc(C(F)(F)F)cc3)c2n1 [Compound 324, 1-(5-ethynyl-1H-pyrrolo[3,2-b]pyridin-3-yl)-3-(4-(trifluoromethyl)phenyl)urea] | 5 to 100 µM
O=C(Nc1ccc(C(F)(F)F)cc1)Nc1c[nH]c2ncc(-c3ccc(N4CCOCC4)nc3)cc12 [Compound 188] | 5 to 100 µM
CC(NC(=O)Nc1c[nH]c2ncc(F)cc12)c1ccc2c(c1)OCCO2 (centres unmarked) [Compound 279] | 5 to 100 µM
O=C(Nc1c[nH]c2ncccc12)NC1CCc2ccccc2C1 (centres unmarked) [Compound 136] | 5 to 100 µM
O=C(Nc1cccc(C(F)(F)F)c1)Nc1c[nH]c2cnccc12 [Compound 149] | 5 to 100 µM
O=C(Nc1ccc2cnccc2c1)Nc1c[nH]c2ncc(F)cc12 [Compound 288] | 5 to 100 µM
O=C(Nc1cccc2c1CCCC2)Nc1c[nH]c2ncc(F)cc12 [Compound 284] | 1 to 5 µM
O=C(Nc1c[nH]c2ccncc12)NC1CCC(c2ccccc2)CC1 (centres unmarked) [Compound 321] | 5 to 100 µM
O=C(Nc1ccc(C(F)(F)F)cc1)Nc1c[nH]c2ncc(C3=CCOCC3)cc12 [Compound 212] | 1 to 5 µM
O=C(Nc1c[nH]c2ncc(F)cc12)NC1CCC2(CCC2)CC1 [Compound 247] | 1 to 5 µM
CCCCC1CCC(NC(=O)Nc2c[nH]c3cnccc23)CC1 (centres unmarked) [Compound 314] | 1 to 5 µM
CCCCC1CCN(C(=O)Nc2c[nH]c3ncc(F)cc23)CC1 [Compound 294] | 5 to 100 µM
CCCCC1CCCN(C(=O)Nc2c[nH]c3ncccc23)C1 (centres unmarked) [Compound 167] | 5 to 100 µM
O=C(Nc1cc(F)cc(F)c1)Nc1c[nH]c2ncc(F)cc12 [Compound 298] | 1 to 5 µM
CCCCC1CCC(NC(=O)Nc2c[nH]c3ncccc23)C1 (centres unmarked) [Compound 285] | 1 to 5 µM
CN1CC=C(c2cnc3[nH]cc(NC(=O)Nc4ccc(C(F)(F)F)cc4)c3c2)CC1 [Compound 213] | 5 to 100 µM
O=C(Nc1c[nH]c2cccnc12)N1CCC2(CCCC2)CC1 [Compound 159, N-(1H-pyrrolo[3,2-b]pyridin-3-yl)-8-azaspiro[4.5]decane-8-carboxamide] | 5 to 100 µM

Compound | EC50
O=C(Nc1ccc(C(F)(F)F)cn1)Nc1c[nH]c2ccncc12 [Compound 319] | 1 to 5 µM
O=C(Nc1c[nH]c2ncccc12)N1CC(c2ccccc2)C1 [Compound 289] | 5 to 100 µM
O=C(Nc1c[nH]c2cccnc12)NC1CCC2(CCC2)CC1 [Compound 142] | 1 to 5 µM
O=C(Nc1cccc(C(F)(F)F)c1)Nc1c[nH]c2cccnc12 [Compound 332] | 1 to 5 µM
O=C(Nc1ccc(C(F)(F)F)cc1)Nc1c[nH]c2nccc(C3=CCOCC3)c12 [Compound 203] | 5 to 100 µM
O=C(Nc1ccc(C(F)(F)F)cc1)Nc1c[nH]c2cc(F)cnc12 [Compound 330] | 1 to 5 µM
O=C(Nc1ccc(C(F)(F)F)nc1)Nc1c[nH]c2ncccc12 [Compound 257] | 5 to 100 µM
O=C(Nc1c[nH]c2ccncc12)NC1CC2CCC(C2)C1 (centres unmarked) [Compound 161] | 5 to 100 µM
O=C(Nc1ccc(C(F)(F)F)cn1)Nc1c[nH]c2cccnc12 [Compound 152] | 5 to 100 µM
O=C(Nc1c[nH]c2ncccc12)N1CCc2ccccc2C1 [Compound 306] | 5 to 100 µM
O=C(Nc1c[nH]c2ncc(F)cc12)NC1CCC(C(F)(F)F)CC1 (centres unmarked) [Compound 270] | 5 to 100 µM
O=C(Nc1ccc(C(F)(F)F)cc1)Nc1c[nH]c2cnccc12 [Compound 144] | 1 to 5 µM
COc1ccc(F)c(F)c1-c1cnc2[nH]cc(NC(=O)Nc3ccc(C(F)(F)F)cc3)c2c1 [Compound 214] | 5 to 100 µM
CN(C(=O)Nc1c[nH]c2cccnc12)c1ccc(C(F)(F)F)cc1 [Compound 154] | 5 to 100 µM
Cc1nc2cc(NC(=O)Nc3c[nH]c4ncc(F)cc34)ccc2s1 [Compound 286] | 1 to 5 µM
O=C(Nc1ccc(C(F)(F)F)nc1)Nc1c[nH]c2ccncc12 [Compound 318] | 5 to 100 µM

Continued, values first:

EC50 | Compound
1 to 5 µM | O=C(Nc1ccc(F)cn1)Nc1c[nH]c2ncc(F)cc12 [Compound 280]
0.2 to 1 µM | O=C(Nc1ccc(C(F)(F)F)cn1)Nc1c[nH]c2ncc(F)cc12 [Compound 138]
1 to 5 µM | O=C(Nc1ccc(C(F)(F)F)cc1)Nc1c[nH]c2ncc(-c3ccccc3)cc12 [Compound 143, 1-(5-phenyl-1H-pyrrolo[2,3-b]pyridin-3-yl)-3-(4-(trifluoromethyl)phenyl)urea]
1 to 5 µM | CCCCC1CCC(NC(=O)Nc2c[nH]c3cccnc23)CC1 (centres unmarked) [Compound 322]
0.2 to 1 µM | O=C(Nc1cccc(C2CCCCC2)c1)Nc1c[nH]c2ncc(F)cc12 [Compound 271]
1 to 5 µM | O=C(Nc1ccc(C(F)(F)F)cc1)Nc1c[nH]c2ncc(-c3cccnc3)cc12 [Compound 210]
1 to 5 µM | O=C(Nc1ccc2ccncc2c1)Nc1c[nH]c2ncc(F)cc12 [Compound 287]
0.04 to 0.2 µM | C#Cc1ccc(NC(=O)Nc2c[nH]c3ncc(F)cc23)cc1 [Compound 291]
0.2 to 1 µM | O=C(Nc1ccc(C(F)(F)F)cn1)Nc1c[nH]c2ncccc12 [Compound 265]
0.04 to 0.2 µM | O=C(Nc1ccc2c(c1)CCCC2)Nc1c[nH]c2ncc(F)cc12 [Compound 296]
0.2 to 1 µM | C=Cc1cnc2[nH]cc(NC(=O)Nc3ccc(C(F)(F)F)cc3)c2c1 [Compound 276, 3-[5-ethenyl-1H-pyrrolo[2,3-b]pyridin-3-yl]-1-[4-(trifluoromethyl)phenyl] urea]
0.04 to 0.2 µM | CCCCc1cccc(NC(=O)Nc2c[nH]c3ncc(F)cc23)c1 [Compound 274]
0.2 to 1 µM | CC(C)n1cc(-c2cnc3[nH]cc(NC(=O)Nc4ccc(C(F)(F)F)cc4)c3c2)cn1 [Compound 193]
0.2 to 1 µM | O=C(Nc1ccc(C2CCCCC2)cn1)Nc1c[nH]c2cccnc12 [Compound 326]
0.2 to 1 µM | Cc1cnc2[nH]cc(NC(=O)Nc3ccc(C(F)(F)F)cc3)c2c1 [Compound 163]
0.2 to 1 µM | O=C(Nc1ccc(C2CCCCC2)cn1)Nc1c[nH]c2ncccc12 [Compound 264]
0.2 to 1 µM | O=C(Nc1ccc(C(F)(F)F)cc1)Nc1c[nH]c2ccncc12 [Compound 145]
0.2 to 1 µM | Cc1ccc2[nH]cc(NC(=O)Nc3ccc(C(F)(F)F)cc3)c2n1 [Compound 329]
0.04 to 0.2 µM | O=C(Nc1ccc(C(F)(F)F)cc1)Nc1c[nH]c2ncc(Br)cc12 [Compound 147]
0.04 to 0.2 µM | CCCCc1ccc(NC(=O)Nc2c[nH]c3ncc(F)cc23)cc1 [Compound 275]
0.2 to 1 µM | O=C(Nc1ccc(C(F)(F)F)cc1)Nc1c[nH]c2ncc(-c3ccc(OCC4CC4)nc3)cc12 [Compound 211]
0.2 to 1 µM | O=C(Nc1cccc(C(F)(F)F)c1)Nc1c[nH]c2ncc(F)cc12 [Compound 297]
0.2 to 1 µM | O=C(Nc1c[nH]c2ncc(F)cc12)NC1CCC(Cc2ccccc2)CC1 (centres unmarked) [Compound 248]
0.2 to 1 µM | CCc1cnc2[nH]cc(NC(=O)Nc3ccc(C(F)(F)F)cc3)c2c1 [Compound 268, 3-[5-ethyl-1H-pyrrolo[2,3-b]pyridin-3-yl]-1-[4-(trifluoromethyl)phenyl] urea]
0.2 to 1 µM | CCCCc1ncc(NC(=O)Nc2c[nH]c3ncc(F)cc23)cc1F [Compound 255]
0.2 to 1 µM | CCCCC1CCC(NC(=O)Nc2c[nH]c3ncc(F)cc23)CC1 (centres unmarked) [Compound 273]
